This is an account of results in patent publication US9351971B2, “Substituted 2,2′-biphenazines for treating diseases” (Eutropics Pharmaceuticals, Inc., priority 2010, dated 2016).

In experiment [1] the target is T1, Mcl-1 (Homo sapiens, UniProt Q07820).
T1 construct: made in house; host or cells: E. coli
Put plainly: Fluorescence polarization assay, Bim BH3 peptide binding to GST-Mcl-1. The source says: (§1) A nineteen amino acid peptide, corresponding to the BH3 domain of Bim, with the sequence FITC-GGGIAQELRRIGDEFNAY (SEQ ID NO: 1) was labeled with the tluorophore FITC according to the manufacturer's instructions (Molecular Probes, Eugene, Oreg.). This sequence was identified as being able to bind to purified Bcl-xL protein (Sattler et al. (1997) Science 275(5302): 983-86) and to have biological activity in cells (Holinger et al. J. Biol. Chem. 274; 13298-1330).
(§2) In addition, recombinant GST -Mcl-1 and GST-Bcl-xL fusion proteins were generated in E.coli and purified using glutathione-sepharose beads using conventional techniques known to those skilled in the fields of biochemistry and molecular biology, (methods for preparation are described in Strategies for Protein Purification and Characterization, Marshak, D, Kadonga, J, Burgess R, Knuth, M, Brennan, W, Sue-Hwa, L, CSH press, Cold Spring Harbor, N.Y.). Binding of the recombinant proteins to the fluorescent Bim BH3 domain was confirmed by titration of increasing concentrations of the recombinant proteins against a constant amount of labeled Bim peptide (16.65 nM). Quantitation of binding was accomplished by FP assay with mP measurements made on the Analyst-GT reader (Molecular Devices, Sunnyvale, Calif.).
Further, the ability of compound A to disrupt the interaction between the fluorescent Bim BH3 peptide and the two fusion proteins was assessed using a fluorescence polarization assay. The Bim peptide (in solution at 4 nano-Molar) and either GST-Mcl-1 (in solution at 12.5 nM) or GST-Bcl-xL (in solution at 11.8 nM) were first combined together in phosphate buttered saline buffer, and then the compound solution in DMSO was added to final concentrations ranging from 10 μM to 0.1 nM). Normally the unbound Bim polypeptide results in polarization of 5 mP units. Upon binding of the GST-Bcl-xL and GST-Mcl-1 fusion protein, polarization increased to 100 mP units.
Experiments are performed using the fluorescence polarization assay as described in Example 2. Either Bcl-xL or Mcl-1 fusion proteins were titrated and maximum mp shift indicate binding concentrations for drug titration studies, as described in Example 2. Compound II-19, was titrated from 10 μM to 0.1 nM in 2 fold serial dilution into the peptide/protein solution. The IC50 for blocking each BH3 peptide from Mcl-1 are assessed using FP, as described in Example 2.
Experiments are performed using the fluorescence polarization assay as described in Example 2. Either GST-Bcl-xL or GST-Mcl-1 fusion proteins were titrated and maximum mp shift indicate binding concentrations for drug titration studies, as described in Example 2. Compound II-20, was titrated from 10 μM to 0.1 nM in 2-fold serial dilution into the peptide/protein solution. The IC50 for blocking each BH3 peptide from Mcl-1 are assessed using FP, as described in Example 2.
On the technique in general: Fluorescence polarisation rises when a labelled molecule tumbles more slowly, as on binding a larger partner.

Experiment [2] concerns SUDHL-10 cell line. Nature of the experiment: Cell viability MTS assay, SUDHL-10 (Bax/Bak deficient). It counts as cell-based, human. To be noted: Homo sapiens, SU-DHL10, 48 hours, MTS assay, Bax/Bak deficient cell line. As for the experimental part:
(§3) The lymphoid derived cell lines DHL-6 and DHL-10 were obtained from Anthony Letai of the Dana Father Cancer Research Institute, Boston, Mass. The […] derived cell line NCP-H929 was obtained irons, the NIH/NCI cell repository. AML-3 cells were obtained from Dr. Michael Andreef (MD Anderson Cancer Center, Houston, Tex.). Cells were grown in RPMI 1640 medium (GIBCO-BRL) supplemented with Pen-strep-glutamine (Gibco 10378) and 5% fetal bovine serum.
(§4) Cells were expanded in tissue culture in appropriate media and then subcultured into 96-well plates at a seeding density of 20,000-40,000 cells per well, and cells were treated with one or more compounds that were titrated info appropriate medium with FCS. Cell lines were treated with compound A at concentrations ranging from 25 μM to 25 nM. The BH3-mimetic obatoclax (Nguyen M et al. (2007), Proc. Natl. Acad. Sci. USA 104:19512-19517) was also tested against the SUDHL-6, SUDHL-10, and NCI-H929 cell lines. Cells were treated for 48 hours and scored for viability using the MTS assay (Promega). Growth inhibition was indicated as a percentage of control cell growth. Growth was determined by measuring the A570 (control cells)—A570 (treated cells)/A570 (control cells). EC50 values were calculated using Graphpad Prizm software.
(Formazan colour is commonly taken as a measure of viable cells.)

The subject of experiment [3] is NCI-H929 multiple myeloma cell line. Put plainly: Cell viability MTS assay, NCI-H929. The following applies: Homo sapiens, 48 hours, read-out: EC50 in NCI-H929 (obatoclax). It counts as cell-based. As for the experimental part: as §3, §4
Experiment [4] has as its system SUDHL-6 lymphoid cell line. Nature of the experiment: Cell viability MTS assay, SUDHL-6. It counts as cell-based. To be noted: Homo sapiens, SU-DHL-6, 48 hours. As for the experimental part:
as §3, §4

Experiment [5] deals with T2, Bcl-xL (Homo sapiens, UniProt Q07817).
T2 construct: made in house; host or cells: E. coli
T2 sequence (Q07817 whole entry): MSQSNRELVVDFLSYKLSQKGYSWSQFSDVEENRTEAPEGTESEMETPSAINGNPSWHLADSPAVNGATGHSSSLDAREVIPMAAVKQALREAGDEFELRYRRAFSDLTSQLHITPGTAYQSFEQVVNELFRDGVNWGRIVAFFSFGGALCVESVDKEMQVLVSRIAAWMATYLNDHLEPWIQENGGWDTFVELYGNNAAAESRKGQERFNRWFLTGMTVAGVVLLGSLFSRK
Nature of the experiment: Fluorescence polarization assay, Bim BH3 peptide binding to GST-Bcl-xL. To be noted: Bim-BH3-FITC peptide, read-out: IC50, inhibition of Bim-BH3 peptide binding to Bcl-xL.
From the text: as §1, §2
Further, the ability of compound A to disrupt the interaction between the fluorescent Bim BH3 peptide and the two fusion proteins was assessed using a fluorescence polarization assay. […]
(§5) Experiments are performed using the fluorescence polarization assay as described in Example 2. […] The IC50 for blocking each BH3 peptide from Mcl-1 are assessed using FP, as described in Example 2.
as §5

Experiment [6] relates to NCI H929 tumors. Put plainly: NCI H929 human myeloma xenograft model in mice. To be noted: bortezomib 1 mg/kg i.p. once every 3 days for 15 days; vehicle 2300 mm^3. It counts as in vivo, mouse. As for the experimental part: Cell Culture: Tumor cell line NCI H929 was cultured according to ATCC recommendations in […] containing 10% fetal bovine serum and pen-strep. On the day of implantation, cells were washed 1× with phosphate buffered saline (PBS) and harvested via centrifugation. Cells were pelleted (5 min at 1000 rpm, RT) then resuspended in serum-free matrigel and kept on ice until implantation.
Tumor Cell Implantation: The cell line was implanted via subcutaneous injection on the right rear flank at a volume of 200 μl containing 3×10^7 cells per mouse; the injection site was cleaned using alcohol before and after injection to prevent any infection.
Tumor Assessment: Beginning 1 week post cell implantation all animals were weighed and tagged and tumors were measured and body weights taken 3 times weekly (length×width×height) on Monday, Wednesday, and Friday for the duration of study. Once an average tumor volume of 100-200 mm^3 was reached, animals were randomized and placed into 4 treatment groups of a minimum of 10 mice per group based on tumor size. Randomization was determined by tumor volume (length×width×height)[…] for all of the mice and average volume was calculated using a average function in Excel (Microsoft Professional).
Treatment: The study involved 4 groups of 10 animals per group. Animals in all dose groups were weighed on days of tumor measurement. All doses were administered i.p. at 10 mL/kg. The Bortezormib (1 mg/kg) group was once every 3 days for 15 days. The mice receiving vehicle and compound II-19 were dosed every second day. Compound II-19 was formulated in 1% DMSO, 10 mM Tris pH 8, 30% hydroxypropyl-beta-cyclodextrin; this vehicle was used as the “vehicle” control. Bortezomib was formulated in 30% propylene glycol, 5% Tween 80, 3.3% dextrose in water, pH 4, 1% DMSO.

The mark [7] stands for this setting: fluorescent polarisation assay of Examples 2 and 3, read-out: IC50, inhibition of MCL1.

Like-named read-outs stand apart in the source and are kept apart here.

T1 sequence (Q07820 whole entry): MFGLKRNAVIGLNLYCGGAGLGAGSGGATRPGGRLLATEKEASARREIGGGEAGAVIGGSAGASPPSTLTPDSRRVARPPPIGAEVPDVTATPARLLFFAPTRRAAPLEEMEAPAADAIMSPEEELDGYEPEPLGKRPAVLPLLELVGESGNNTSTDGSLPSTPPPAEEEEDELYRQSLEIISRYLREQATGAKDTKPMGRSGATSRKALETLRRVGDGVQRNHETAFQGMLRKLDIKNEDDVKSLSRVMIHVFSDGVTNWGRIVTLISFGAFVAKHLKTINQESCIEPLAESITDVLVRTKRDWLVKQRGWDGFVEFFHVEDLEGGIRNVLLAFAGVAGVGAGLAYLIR

Regarding `COc1cc(-c2ccc(Nc3ccc(C)cc3C(=O)O)c(OC)c2)ccc1Nc1ccccc1C(=O)O` [Ic-7, 2-((4′-((2-carboxyphenyl)amino)-3,3′-dimethoxy-[1,1′-biphenyl]-4-Yl)amino)-5-methylbenzoic acid], the IC50 in experiment [1] (setting [7]) is less than 50000 nM. For `COC1=CC(c2cc3ccccc3[nH]2)=N/C1=C\c1[nH]c(C)cc1C` [obatoclax, reference compound], the EC50 was 800 nM in experiment [2] (read-out: EC50 in SUDHL-10 (obatoclax)), 1800 nM in experiment [3] and 2500 nM in experiment [4] (read-out: EC50 in SUDHL-6 (obatoclax)). In the case of `COC(=O)c1ccc(O)c2nc3c(CO)c(O)c(-c4c(O)c(CO)c5nc6c(O)ccc(C(=O)OC)c6nc5c4O)c(O)c3nc12` [II-20, dimethyl 1,1′,3,3′,6,6′-hexahydroxy-4,4′-bis(hydroxymethyl)-[2,2′-biphenazine]-9,9′-dicarboxylate], the EC50 in experiment [2] (read-out: EC50, cell killing in SUDHL-10) was greater than 25000 nM; in experiment [4] (read-out: EC50, cell killing in SUDHL-6), 9700 nM. Further, the IC50 was 122 nM in experiment [5] and 27 nM in experiment [1] (fluorescence polarization, Bim-BH3-FITC peptide, GST-Mcl-1, read-out: IC50, inhibition of Bim-BH3 peptide binding to Mcl-1). Also, in experiment [1] (ratio of FP IC50 values), the “preference for inhibition of Mcl-1 vs. Bcl-xL” value is roughly 5 fold. For the compound `COc1cc(-c2ccc(Nc3cnccc3C(=O)O)c(OC)c2)ccc1Nc1ccccc1C(=O)O` [Ic-8], in experiment [1] (setting [7]), the 50% inhibitory concentration (IC50) is less than 50000 nM. On the same count and under the same terms, then `COc1cc(-c2ccc(Nc3ccc(C)cc3C(=O)O)c(OC)c2)ccc1Nc1ccc(C)cc1C(=O)O` [Ic-17, 6,6′-((3,3′-dimethoxy-[1,1′-biphenyl]-4,4′-diyl)bis(azanediyl))bis(3-methylbenzoic acid)], with less than 50000 nM; and `COc1ccc(C(=O)O)c(Nc2ccc(-c3ccc(Nc4cc(OC)ccc4C(=O)O)c(OC)c3)cc2OC)c1` [Ic-18, 2,2′-((3,3′-dimethoxy-[1,1′-biphenyl]-4,4′-diyl)bis(azanediyl))bis(4-methoxybenzoic acid)], with less than 50000 nM.

Take `CC(C)C[C@H](NC(=O)[C@H](Cc1ccccc1)NC(=O)c1cnccn1)B(O)O` [bortezomib, reference compound]: in experiment [6], the “average tumor volume at the end of the study” value was found to be 1180 mm^3. For the compound `O=C(O)c1ccccc1Nc1ccc(-c2ccc(Nc3ccccc3C(=O)O)c(O)c2)cc1O` [Ic-6, 2,2′-((3,3′-dihydroxy-[1,1′-biphenyl]-4,4′-diyl)bis(azanediyl))dibenzoic acid], in experiment [1] (setting [7]), the IC50 is less than 50000 nM. On to `COc1cc(-c2ccc(Nc3cccc(C(=O)O)c3)c(OC)c2)ccc1Nc1cccc(C(=O)O)c1` [Ic-1, 3,3′-((3,3′-dimethoxy-[1,1′-bipenyl]-4,4′-diyl)bis(azanediyl))dibenzoic acid], for which the concentration for half-maximal inhibition (IC50) in experiment [1] (setting [7]) was less than 50000 nM.

What is called IC50 is the concentration that inhibits the measured activity by half. In general, EC50 refers to the concentration needed to bring the measured effect to its halfway point.
